# Reference: patent publication US7538241B2, “Hsp90 family protein inhibitors” (Kyowa Hakko Kogyo Co., Ltd., priority 2003, dated 2009)
# Test system: human chronic myelocytic leukemia-derived K562 cells
# Assay: Cell growth inhibition test with K562 cells (WST-1)
# Type: cell-based
# Settings: 72 hours, read-out: 50% growth inhibition concentration (GI50)
# Procedure: In a 96-well plate (Nunc), human chronic myelocytic leukemia-derived K562 cells were sown in an amount of 1500 cells/well, and pre-incubated in 10% FCS-containing Rosewell Park Memorial Institute's Medium (RPMI) 1640 (Nissui) (incubation medium) in a 5% carbon dioxide incubator at 37° C. for 5 hours. Next, a DMSO solution of a test compound controlled at 10 mmol/L was stepwise diluted with the incubation medium, and added to each well in a total amount of 100 μL/well, and further incubated in the 5% carbon dioxide incubator at 37° C. for 72 hours. After the incubation, WST-1-labeled mixture (Rosh Diagnostic) diluted 2-fold with the incubation medium was added thereto in an amount of 20 μL/well, and incubated in the 5% carbon dioxide incubator at 37° C. for 2 hours. Using a microplate spectrophotometer (Biorad's Model 550), the absorbance at 450 nm and 655 nm of each well was measured. The cell growth inhibition activity of the test compound was indicated by the 50% growth inhibition concentration (GI50) thereof, like in Test Example 2.
row,SMILES,GI50
1,"CCCNC(=O)c1cccc(-c2c(O)cc(O)c(CC)c2CC2O[C@H](CO)[C@@H](CO)O2)c1 [Compound 306, 5-{[(4R,5R)-4,5-Bis(hydroxymethyl)-1,3-dioxolan-2-yl]methyl}-6-ethyl-4-[3-(propylcarbamoyl)phenyl]benzene-1,3-diol]",≤ 50 µM
2,"CCc1c(O)cc(O)c(-c2cccc(O)c2)c1CC1O[C@H](COC)[C@@H](COC)O1 [Compound 307, 5-{[(4R,5R)-4,5-Bis(methoxymethyl)-1,3-dioxolan-2-yl]methyl}-6-ethyl-4-(3-hydroxyphenyl)benzene-1,3-diol]",≤ 50 µM
3,"CCc1c(O)cc(O)c(-c2ccccc2)c1CC1O[C@H](COC)[C@@H](COC)O1 [Compound 308, 5-{[(4R,5R)-4,5-Bis(methoxymethyl)-1,3-dioxolan-2-yl]methyl}-6-ethyl-4-phenylbenzene-1,3-diol]",≤ 50 µM
4,"CCc1c(O)cc(O)c(-c2ccc(OC)c(OC)c2)c1CCOCCO [Compound 309, 6-Ethyl-5-[2-(2-hydroxyethoxy)ethyl]-4-(3,4-dimethoxyphenyl)benzene-1,3-diol]",≤ 50 µM
5,"CC(=O)c1c(O)cc(O)c(-c2cccc(O)c2)c1CCOCCO [Compound 310, 1-{2,4-Dihydroxy-6-[2-(2-hydroxyethoxy)ethyl]-5-(3-hydroxyphenyl)phenyl}ethanone]",≤ 50 µM
6,"CCc1c(O)cc(O)c(-c2ccc(F)c(Cl)c2)c1CCOCCO [Compound 312, 4-(3-Chloro-4-fluorophenyl)-6-ethyl-5-[2-(2-hydroxyethoxy)ethyl]benzene-1,3-diol]",≤ 50 µM
7,"CCc1c(O)cc(O)c(-c2ccc(F)c(C)c2)c1CCOCCO [Compound 314, 6-Ethyl-4-(4-fluoro-3-methylphenyl)-5-[2-(2-hydroxyethoxy)ethyl]benzene-1,3-diol]",≤ 50 µM
8,"CCc1c(O)cc(O)c(-c2ccccc2)c1Cc1n[nH]c(=O)o1 [Compound 315, 5-[(2-ethyl-3,5-dihydroxy-6-phenylphenyl)methyl]-3H-1,3,4-oxadiazol-2-one]",≤ 50 µM
9,"CCc1c(O)cc(O)c(-c2ccccc2)c1CCN1CCCC1CO (stereo not shown) [Compound 316, 6-Ethyl-5-{2-[2-(hydroxymethyl)pyrrolidin-1-yl]ethyl}-4-phenylbenzene-1,3-diol]",≤ 50 µM
10,"CCc1c(O)cc(O)c(-c2ccccc2)c1Cc1nn(CCO)c(=O)o1 [Compound 318, 5-[(2-Ethyl-3,5-dihydroxy-6-phenylphenyl)methyl]-3-(2-hydroxyethyl)-3H-1,3,4-oxadiazol-2-one]",≤ 50 µM
11,"CCc1c(O)cc(O)c(-c2ccccc2)c1CCN1C(=O)OCC1C(=O)OC (stereo not shown) [Compound 319, Methyl 3-[2-(2-ethyl-3,5-dihydroxy-6-phenylphenyl)ethyl]-2-oxo-1,3-oxazolidine-4-carboxylate]",≤ 50 µM
12,"CCc1c(O)cc(O)c(-c2ccccc2)c1CCN1CCC(O)C1 (stereo not shown) [Compound 321, 6-Ethyl-5-[2-(3-hydroxypyrrolidin-1-yl)ethyl]-4-phenylbenzene-1,3-diol]",≤ 50 µM
13,"CCc1c(O)cc(O)c(-c2ccccc2)c1CC(=O)N(CCO)CCCOC [Compound 322, 2-(2-Ethyl-3,5-dihydroxy-6-phenylphenyl)-N-(2-hydroxyethyl)-N-(3-methoxypropyl)acetamide]",≤ 50 µM
14,"CCc1c(O)cc(O)c(-c2cccc(OC)c2)c1Cc1nn(CCO)c(=O)o1 [Compound 323, 5-{[2-Ethyl-3,5-dihydroxy-6-(3-methoxyphenyl)phenyl]methyl}-3-(2-hydroxyethyl)-3H-1,3,4-oxadiazol-2-one]",≤ 50 µM
15,"CCc1c(O)cc(O)c(-c2cccc(O)c2)c1Cc1nn(CCOC)c(=O)o1 [Compound 324, 5-{[2-Ethyl-3,5-dihydroxy-6-(3-hydroxyphenyl)phenyl]methyl}-3-(2-methoxyethyl)-3H-1,3,4-oxadiazol-2-one]",≤ 50 µM
16,"CCOC(=O)Oc1cc(OC(=O)OCC)c(-c2ccccc2)c(CCOCCOC)c1CC [Compound 325, 1,5-Bis(ethoxycarbonyloxy)-4-ethyl-3-[2-(2-methoxyethoxy)ethyl]-2-phenylbenzene]",≤ 50 µM
17,"CCc1c(OC(=O)N(C)C)cc(OC(=O)N(C)C)c(-c2ccccc2)c1CCOCCOC [Compound 326, 1,5-Bis(dimethylcarbamoyloxy)-4-ethyl-3-[2-(2-methoxyethoxy)ethyl]-2-phenylbenzene]",≤ 50 µM

# Further lines, results first:
row,GI50,SMILES
1,≤ 50 µM,"CCc1c(O)cc(O)c(-c2cccc(OC)c2)c1CC1O[C@H](CO)[C@@H](CO)O1 [Compound 286, 5-{[(4R,5R)-4,5-bis(hydroxymethyl)-1,3-dioxolan-2-yl]methyl}-6-ethyl-4-(3-methoxyphenyl)benzene-1,3-diol]"
2,≤ 50 µM,"CC(=O)c1c(O)cc(O)c(-c2ccccc2)c1CC1O[C@@H](CO)[C@H](CO)O1 [Compound 287, 6-Acetyl-5-{[(4S,5S)-4,5-bis(hydroxymethyl)-1,3-dioxolan-2-yl]methyl}-4-phenylbenzene-1,3-diol]"
3,≤ 50 µM,"CCc1c(O)cc(O)c(-c2cccc(C(N)=O)c2)c1CC1O[C@@H](CO)[C@H](CO)O1 [Compound 288, 5-{[(4S,5S)-4,5-Bis(hydroxymethyl)-1,3-dioxolan-2-yl]methyl}-6-ethyl-4-(3-carbamoylphenyl)benzene-1,3-diol]"
4,≤ 50 µM,"CCc1c(O)cc(O)c(-c2cccc(C(=O)NC)c2)c1CC1O[C@@H](CO)[C@H](CO)O1 [Compound 289, 5-{[(4S,5S)-4,5-Bis(hydroxymethyl)-1,3-dioxolan-2-yl]methyl}-6-ethyl-4-[3-(methylcarbamoyl)phenyl]benzene-1,3-diol]"
5,≤ 50 µM,"CCc1c(O)cc(O)c(-c2cccc(C(=O)N(C)C)c2)c1CC1O[C@@H](CO)[C@H](CO)O1 [Compound 290, 5-{[(4S,5S)-4,5-Bis(hydroxymethyl)-1,3-dioxolan-2-yl]methyl}-4-[3-(dimethylcarbamoyl)phenyl]-6-ethylbenzene-1,3-diol]"
6,≤ 50 µM,"CCc1c(O)cc(O)c(-c2ccc(F)c(C)c2)c1CC1O[C@H](CO)[C@@H](CO)O1 [Compound 291, 5-{[(4R,5R)-4,5-bis(hydroxymethyl)-1,3-dioxolan-2-yl]methyl}-6-ethyl-4-(4-fluoro-3-methylphenyl)benzene-1,3-diol]"
7,≤ 50 µM,"CCc1c(O)cc(O)c(-c2cccc(C(=O)N(C)C)c2)c1CC1O[C@H](CO)[C@@H](CO)O1 [Compound 292, 5-{[(4R,5R)-4,5-bis(hydroxymethyl)-1,3-dioxolan-2-yl]methyl}-4-[3-(dimethylcarbamoyl)phenyl]-6-ethylbenzene-1,3-diol]"
8,≤ 50 µM,"CCc1c(O)cc(O)c(-c2ccc(F)c(Cl)c2)c1CC1O[C@H](CO)[C@@H](CO)O1 [Compound 293, 5-{[(4R,5R)-4,5-bis(hydroxymethyl)-1,3-dioxolan-2-yl]methyl}-4-(3-chloro-4-fluorophenyl)-6-ethylbenzene-1,3-diol]"
9,≤ 50 µM,"CCc1c(O)cc(O)c(-c2cccc(C(=O)NC)c2)c1CC1O[C@H](CO)[C@@H](CO)O1 [Compound 294, 5-{[(4R,5R)-4,5-Bis(hydroxymethyl)-1,3-dioxolan-2-yl]methyl}-6-ethyl-4-[3-(methylcarbamoyl)phenyl]benzene-1,3-diol]"
10,≤ 50 µM,"CCc1c(O)cc(O)c(-c2cccc(C(N)=O)c2)c1CC1O[C@H](CO)[C@@H](CO)O1 [Compound 295, 5-{[(4R,5R)-4,5-bis(hydroxymethyl)-1,3-dioxolan-2-yl]methyl}-4-(3-carbamoylphenyl)-6-ethylbenzene-1,3-diol]"
11,≤ 50 µM,"CCc1c(O)cc(O)c(-c2cccc(F)c2)c1CC1O[C@H](CO)[C@@H](CO)O1 [Compound 296, 5-{[(4R,5R)-4,5-bis(hydroxymethyl)-1,3-dioxolan-2-yl]methyl}-6-ethyl-4-(3-fluorophenyl)benzene-1,3-diol]"
12,≤ 50 µM,"CCc1c(O)cc(O)c(-c2cccc(O)c2)c1CC1O[C@H](CO)[C@@H](CO)O1 [Compound 298, 5-{[(4R,5R)-4,5-Bis(hydroxymethyl)-1,3-dioxolan-2-yl]methyl}-6-ethyl-4-(3-hydroxyphenyl)benzene-1,3-diol]"
13,≤ 50 µM,"CCc1c(O)cc(O)c(-c2ccc(F)c(F)c2)c1CC1O[C@@H](CO)[C@H](CO)O1 [Compound 299, 5-{[(4S,5S)-4,5-bis(hydroxymethyl)-1,3-dioxolan-2-yl]methyl}-4-(3,4-difluorophenyl)-6-ethylbenzene-1,3-diol]"
14,≤ 50 µM,"CCc1c(O)cc(O)c(-c2ccc(F)c(Cl)c2)c1CC1O[C@@H](CO)[C@H](CO)O1 [Compound 301, 5-{[(4S,5S)-4,5-Bis(hydroxymethyl)-1,3-dioxolan-2-yl]methyl}-4-(3-chloro-4-fluorophenyl)-6-ethylbenzene-1,3-diol]"
15,≤ 50 µM,"CCc1c(O)cc(O)c(-c2cccc(C(=O)NCCOC)c2)c1CC1O[C@H](CO)[C@@H](CO)O1 [Compound 303, 5-{[(4R,5R)-4,5-Bis(hydroxymethyl)-1,3-dioxolan-2-yl]methyl}-6-ethyl-4-[3-(2-methoxyethyl)carbamoylphenyl]benzene-1,3-diol]"
16,≤ 50 µM,"CCc1c(O)cc(O)c(-c2cccc(C(=O)NCCO)c2)c1CC1O[C@H](CO)[C@@H](CO)O1 [Compound 304, 5-{[(4R,5R)-4,5-Bis(hydroxymethyl)-1,3-dioxolan-2-yl]methyl}-6-ethyl-4-[3-(2-hydroxyethyl)carbamoylphenyl]benzene-1,3-diol]"
17,≤ 50 µM,"CCc1c(O)cc(O)c(-c2cccc(C(=O)NC3CC3)c2)c1CC1O[C@H](CO)[C@@H](CO)O1 [Compound 305, 5-{[(4R,5R)-4,5-Bis(hydroxymethyl)-1,3-dioxolan-2-yl]methyl}-4-[3-(2-cyclopropylcarbamoyl)phenyl]-6-ethylbenzene-1,3-diol]"
